Data as given in ChEMBL document CHEMBL4350952, “Evolution of PI3Kγ and δ Inhibitors for Inflammatory and Autoimmune Diseases” (J Med Chem, 2019).

Assays:
[1] = target: T1, Phosphatidylinositol 4,5-bisphosphate 3-kinase catalytic subunit delta isoform (Homo sapiens, UniProt O00329); assay: Inhibition of PI3Kdelta in human SU-DHL6 cells; type: cell-based
T1 sequence (O00329 whole entry): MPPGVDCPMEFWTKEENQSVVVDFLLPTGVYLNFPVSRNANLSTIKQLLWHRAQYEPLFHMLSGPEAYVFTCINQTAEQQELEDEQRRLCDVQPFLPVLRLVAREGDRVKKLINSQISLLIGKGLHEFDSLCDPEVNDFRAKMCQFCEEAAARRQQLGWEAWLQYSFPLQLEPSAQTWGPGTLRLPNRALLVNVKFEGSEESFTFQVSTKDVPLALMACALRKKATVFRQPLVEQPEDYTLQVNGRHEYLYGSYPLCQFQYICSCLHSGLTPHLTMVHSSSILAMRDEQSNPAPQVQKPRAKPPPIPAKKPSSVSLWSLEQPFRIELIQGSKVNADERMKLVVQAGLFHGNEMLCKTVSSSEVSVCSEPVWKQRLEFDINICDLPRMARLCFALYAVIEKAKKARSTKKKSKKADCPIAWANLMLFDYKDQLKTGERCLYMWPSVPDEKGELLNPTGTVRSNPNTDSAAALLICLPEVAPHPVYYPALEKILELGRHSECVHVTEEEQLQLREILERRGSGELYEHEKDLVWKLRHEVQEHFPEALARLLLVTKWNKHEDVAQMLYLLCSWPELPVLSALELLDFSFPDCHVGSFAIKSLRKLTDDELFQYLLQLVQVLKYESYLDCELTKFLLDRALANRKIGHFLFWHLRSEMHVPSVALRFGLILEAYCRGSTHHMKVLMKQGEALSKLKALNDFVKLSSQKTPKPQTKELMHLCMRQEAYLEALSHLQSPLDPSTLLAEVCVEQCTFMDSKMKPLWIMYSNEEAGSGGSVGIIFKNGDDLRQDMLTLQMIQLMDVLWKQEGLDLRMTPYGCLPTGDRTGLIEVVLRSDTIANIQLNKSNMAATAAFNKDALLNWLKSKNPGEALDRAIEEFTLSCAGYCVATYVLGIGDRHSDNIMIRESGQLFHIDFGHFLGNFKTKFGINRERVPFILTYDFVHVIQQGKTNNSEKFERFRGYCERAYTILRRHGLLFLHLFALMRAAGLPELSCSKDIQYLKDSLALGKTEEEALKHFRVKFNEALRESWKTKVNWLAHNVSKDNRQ

SU-DHL-6 [2] = assay: Cytotoxicity against human SU-DHL6 cells; type: functional, cell-based
[3] = target: T2, Phosphatidylinositol 4,5-bisphosphate 3-kinase catalytic subunit gamma isoform (Homo sapiens, UniProt P48736); assay: Inhibition of PI3Kgamma in human SUDHL6 cells; type: cell-based
T2 sequence (P48736 whole entry, canonical isoform): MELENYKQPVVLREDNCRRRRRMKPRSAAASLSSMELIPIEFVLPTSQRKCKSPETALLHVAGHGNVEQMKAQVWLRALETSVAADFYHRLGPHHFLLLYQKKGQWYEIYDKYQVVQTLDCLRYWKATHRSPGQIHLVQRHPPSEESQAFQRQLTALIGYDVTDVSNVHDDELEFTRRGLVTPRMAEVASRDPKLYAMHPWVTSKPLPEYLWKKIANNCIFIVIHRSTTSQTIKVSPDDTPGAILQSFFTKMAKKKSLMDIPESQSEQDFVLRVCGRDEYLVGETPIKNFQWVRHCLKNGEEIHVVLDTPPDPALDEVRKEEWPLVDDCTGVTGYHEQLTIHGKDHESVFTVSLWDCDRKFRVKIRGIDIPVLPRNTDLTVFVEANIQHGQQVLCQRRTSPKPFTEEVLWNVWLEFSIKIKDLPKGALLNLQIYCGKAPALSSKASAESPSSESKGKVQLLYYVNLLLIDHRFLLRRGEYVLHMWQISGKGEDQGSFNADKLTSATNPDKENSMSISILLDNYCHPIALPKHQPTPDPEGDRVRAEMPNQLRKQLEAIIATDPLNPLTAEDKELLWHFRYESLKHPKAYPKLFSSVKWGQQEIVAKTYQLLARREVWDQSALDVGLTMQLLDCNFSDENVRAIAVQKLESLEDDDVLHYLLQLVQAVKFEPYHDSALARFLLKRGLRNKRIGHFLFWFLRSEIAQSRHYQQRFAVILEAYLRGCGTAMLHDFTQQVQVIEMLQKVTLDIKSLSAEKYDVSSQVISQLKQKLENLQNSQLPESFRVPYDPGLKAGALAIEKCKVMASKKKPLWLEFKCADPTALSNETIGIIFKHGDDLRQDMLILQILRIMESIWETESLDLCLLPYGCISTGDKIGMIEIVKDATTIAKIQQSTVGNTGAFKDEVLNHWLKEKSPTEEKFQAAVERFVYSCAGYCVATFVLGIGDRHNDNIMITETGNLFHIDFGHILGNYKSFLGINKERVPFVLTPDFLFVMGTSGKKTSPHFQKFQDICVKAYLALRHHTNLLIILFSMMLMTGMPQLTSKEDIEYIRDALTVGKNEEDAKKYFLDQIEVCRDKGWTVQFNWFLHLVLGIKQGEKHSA

Homo sapiens [4] = species on record: Homo sapiens; assay: Selectivity ratio of IC50 for PI3Kalpha in human SUDHL6 cells to IC50 for PI3Kdelta in human SUDHL6 cells; type: cell-based
Homo sapiens [5] = species on record: Homo sapiens; assay: Selectivity ratio of IC50 for PI3Kbeta in human SUDHL6 cells to IC50 for PI3Kdelta in human SUDHL6 cells; type: cell-based
SU-DHL-6 [6] = assay: Cytotoxicity against in human SUDHL6 cells; type: functional, cell-based
[7] = target: T3, PI3-kinase p110-delta/p85-alpha (Homo sapiens, UniProt O00329); assay: Inhibition of N-terminal His6-tagged recombinant full length human p110delta/untagged recombinant full length human p85alpha expressed in baculovirus infected Sf21 insect cells using PIP2 as substrate after 60 mins by HTRF assay
T3 sequence (P27986 whole entry, one chain of several, canonical isoform): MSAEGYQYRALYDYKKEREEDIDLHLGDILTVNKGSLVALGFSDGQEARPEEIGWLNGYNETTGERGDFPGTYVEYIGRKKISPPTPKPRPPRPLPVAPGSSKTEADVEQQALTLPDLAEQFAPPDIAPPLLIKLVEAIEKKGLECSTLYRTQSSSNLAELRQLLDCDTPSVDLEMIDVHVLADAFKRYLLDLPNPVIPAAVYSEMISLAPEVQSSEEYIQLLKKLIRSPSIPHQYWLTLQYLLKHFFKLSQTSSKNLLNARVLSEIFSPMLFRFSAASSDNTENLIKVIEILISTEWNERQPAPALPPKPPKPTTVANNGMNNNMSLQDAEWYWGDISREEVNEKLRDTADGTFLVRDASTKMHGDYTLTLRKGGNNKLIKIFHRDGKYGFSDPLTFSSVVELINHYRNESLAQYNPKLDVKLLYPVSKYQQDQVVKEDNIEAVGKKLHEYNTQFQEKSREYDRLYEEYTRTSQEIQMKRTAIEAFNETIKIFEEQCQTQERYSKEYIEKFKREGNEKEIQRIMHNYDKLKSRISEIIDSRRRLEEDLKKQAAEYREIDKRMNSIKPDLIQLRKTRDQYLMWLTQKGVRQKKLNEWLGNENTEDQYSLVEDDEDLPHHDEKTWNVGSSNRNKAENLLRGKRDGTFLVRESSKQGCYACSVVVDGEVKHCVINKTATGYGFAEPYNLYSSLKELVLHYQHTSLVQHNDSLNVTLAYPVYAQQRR

[8] = target: T1, Phosphatidylinositol 4,5-bisphosphate 3-kinase catalytic subunit delta isoform
Description: Inhibition of PI3Kdelta (unknown origin) preincubated for 30 mins followed by insulin stimulation for 5 mins by Western blot analysis

[9] = target: T1, Phosphatidylinositol 4,5-bisphosphate 3-kinase catalytic subunit delta isoform; assay: Inhibition of PI3Kdelta (unknown origin)
Homo sapiens [10] = species on record: Homo sapiens; assay: Selectivity ratio of IC50 for N-terminal His6-tagged recombiant human full length p120gamma IC50 for N-terminal His6-tagged recombinant full length human p110delta/untagged recombinant full length human p85alpha
Jurkat = assay: Cytotoxicity against human Jurkat cells; type: functional, cell-based
[11] = target: T2, Phosphatidylinositol 4,5-bisphosphate 3-kinase catalytic subunit gamma isoform; assay: Inhibition of PI3Kgamma (unknown origin)
JeKo-1 = assay: Cytotoxicity against human JeKo1 cells; type: functional, cell-based
[12] = target: T3, PI3-kinase p110-delta/p85-alpha; assay: Inhibition of N-terminal His6-tagged recombinant full length human p110delta/untagged recombinant full length human p85alpha expressed in baculovirus infected Sf21 insect cells after 60 mins by ADP-Glo assay
[13] = target: T1, Phosphatidylinositol 4,5-bisphosphate 3-kinase catalytic subunit delta isoform; assay: Inhibition of PI3Kdelta in human Neutrophil cells; type: cell-based
[14] = target: T2, Phosphatidylinositol 4,5-bisphosphate 3-kinase catalytic subunit gamma isoform; assay: Inhibition of PI3Kgamma in human Neutrophil cells; type: cell-based
Homo sapiens [15] = species on record: Homo sapiens; assay: Selectivity ratio of IC50 for PI3Kalpha in human Neutrophil cells to IC50 for PI3Kdelta in human Neutrophil cells; type: cell-based
Homo sapiens [16] = species on record: Homo sapiens; assay: Selectivity ratio of IC50 for PI3Kbeta in human Neutrophil cells to IC50 for PI3Kdelta in human Neutrophil cells; type: cell-based
Neutrophil = assay: Cytotoxicity against in human Neutrophil cells; type: cell-based
[17] = Cytotoxicity against human basophil cells after 24 hrs by MTT assay; type: cell-based
[18] = target: T2, Phosphatidylinositol 4,5-bisphosphate 3-kinase catalytic subunit gamma isoform; assay: Inhibition of GST-tagged PI3Kgamma (unknown origin) using PIP2 as substrate preincubated for 2 hrs followed by ATP addition measured after 30 mins by TR-FRET assay
[19] = target: T3, PI3-kinase p110-delta/p85-alpha; assay: Inhibition of N-terminal His6-tagged recombinant full length human p110delta/untagged recombinant full length human p85alpha expressed in baculovirus infected Sf21 insect cells after 20 mins by alphascreen assay
[20] = Cytotoxicity against human SUDHL cells; type: functional, cell-based
B cell = assay: Cytotoxicity against human B cells; type: functional, cell-based
Raji = assay: Cytotoxicity against in human Raji cells; type: functional, cell-based
[21] = Cytotoxicity against basophil derived from B-cell malignant patient by cell-titer aqueous one solution cell proliferation assay; type: functional; conditions: Homo sapiens
[22] = target: Casein kinase I isoform epsilon (Homo sapiens) (UniProt P49674); assay: Inhibition of casein kinase 1 epsilon (unknown origin) at 1 uM relative to control
Casein kinase I isoform epsilon (Homo sapiens), sequence (P49674 whole entry, looked up, canonical isoform): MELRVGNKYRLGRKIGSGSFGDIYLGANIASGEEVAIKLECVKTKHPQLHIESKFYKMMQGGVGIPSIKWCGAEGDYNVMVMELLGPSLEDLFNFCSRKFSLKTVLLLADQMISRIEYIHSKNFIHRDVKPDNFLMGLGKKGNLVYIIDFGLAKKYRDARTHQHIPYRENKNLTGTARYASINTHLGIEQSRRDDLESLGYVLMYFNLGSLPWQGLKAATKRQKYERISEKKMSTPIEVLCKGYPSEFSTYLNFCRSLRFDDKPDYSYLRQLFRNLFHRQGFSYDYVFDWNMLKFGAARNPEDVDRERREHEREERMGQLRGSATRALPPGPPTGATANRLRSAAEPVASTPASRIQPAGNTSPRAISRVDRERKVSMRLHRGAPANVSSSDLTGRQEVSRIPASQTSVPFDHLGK

[23] = target: T2, Phosphatidylinositol 4,5-bisphosphate 3-kinase catalytic subunit gamma isoform; assay: Inhibition of PI3Kgamma (unknown origin) using PIP2 as substrate preincubated for 10 mins followed by ATP addition measured after 30 mins by HTRF assay
[24] = target: T1, Phosphatidylinositol 4,5-bisphosphate 3-kinase catalytic subunit delta isoform; assay: Inhibition of PI3Kdelta in human Pfeiffer cells; type: cell-based
Pfeiffer = assay: Cytotoxicity against human Pfeiffer cells; type: functional, cell-based
[25] = target: T3, PI3-kinase p110-delta/p85-alpha; assay: Inhibition of N-terminal His6-tagged recombinant full length human p110delta/untagged recombinant full length human p85alpha expressed in baculovirus infected Sf21 insect cells after 80 mins by fluorescence polarization assay
[26] = target: T2, Phosphatidylinositol 4,5-bisphosphate 3-kinase catalytic subunit gamma isoform; assay: Inhibition of recombinant N-terminal His-tagged full length human PI3Kgamma expressed in baculovirus expression system after 80 mins by fluorescence polarization assay
Homo sapiens [27] = species on record: Homo sapiens; assay: Selectivity ratio of IC50 for His-tagged recombiant human full length p110 alpha/p85 alpha IC50 for N-terminal His6-tagged recombinant full length human p110delta/untagged recombinant full length human p85alpha
Homo sapiens [28] = species on record: Homo sapiens; assay: Selectivity ratio of IC50 for N-terminal His-tagged recombinant human full length p110 beta/untagged recombinant full length human p85alpha IC50 forN-terminal His6-tagged recombinant full length human p110delta/untagged recombinant full length human p85alpha
[29] = target: Phosphatidylinositol 3-kinase catalytic subunit type 3 (Homo sapiens, UniProt Q8NEB9); assay: Inhibition of Vps34 (unknown origin)
Phosphatidylinositol 3-kinase catalytic subunit type 3, sequence (Q8NEB9 whole entry): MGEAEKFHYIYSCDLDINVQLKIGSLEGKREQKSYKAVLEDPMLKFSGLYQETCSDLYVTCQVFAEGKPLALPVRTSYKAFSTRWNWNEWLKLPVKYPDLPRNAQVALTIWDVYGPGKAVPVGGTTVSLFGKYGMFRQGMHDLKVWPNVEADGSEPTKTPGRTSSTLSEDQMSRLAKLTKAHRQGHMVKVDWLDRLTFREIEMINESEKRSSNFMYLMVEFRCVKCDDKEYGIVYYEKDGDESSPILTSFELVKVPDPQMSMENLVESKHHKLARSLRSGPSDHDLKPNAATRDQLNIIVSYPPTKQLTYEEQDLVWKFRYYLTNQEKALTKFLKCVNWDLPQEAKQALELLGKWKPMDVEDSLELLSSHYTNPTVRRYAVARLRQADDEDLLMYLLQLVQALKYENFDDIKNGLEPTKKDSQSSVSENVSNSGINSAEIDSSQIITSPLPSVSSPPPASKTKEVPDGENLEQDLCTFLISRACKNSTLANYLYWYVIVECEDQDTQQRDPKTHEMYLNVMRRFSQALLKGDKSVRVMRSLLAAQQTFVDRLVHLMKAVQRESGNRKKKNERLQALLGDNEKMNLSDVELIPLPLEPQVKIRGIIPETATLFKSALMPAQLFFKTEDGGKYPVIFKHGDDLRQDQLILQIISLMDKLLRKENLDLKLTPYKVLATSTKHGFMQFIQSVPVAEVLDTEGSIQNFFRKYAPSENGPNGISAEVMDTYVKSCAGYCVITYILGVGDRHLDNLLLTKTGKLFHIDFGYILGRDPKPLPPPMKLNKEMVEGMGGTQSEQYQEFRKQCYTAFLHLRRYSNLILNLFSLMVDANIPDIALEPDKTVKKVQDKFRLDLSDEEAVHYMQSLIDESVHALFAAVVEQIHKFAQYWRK

[30] = target: DNA-dependent protein kinase catalytic subunit (Homo sapiens, UniProt P78527); assay: Inhibition of DNAPK (unknown origin)
[31] = target: Serine/threonine-protein kinase SIK1 (Homo sapiens) (UniProt P57059); assay: Inhibition of SIK (unknown origin) at 1 uM relative to control
Serine/threonine-protein kinase SIK1 (Homo sapiens), sequence (P57059 whole entry): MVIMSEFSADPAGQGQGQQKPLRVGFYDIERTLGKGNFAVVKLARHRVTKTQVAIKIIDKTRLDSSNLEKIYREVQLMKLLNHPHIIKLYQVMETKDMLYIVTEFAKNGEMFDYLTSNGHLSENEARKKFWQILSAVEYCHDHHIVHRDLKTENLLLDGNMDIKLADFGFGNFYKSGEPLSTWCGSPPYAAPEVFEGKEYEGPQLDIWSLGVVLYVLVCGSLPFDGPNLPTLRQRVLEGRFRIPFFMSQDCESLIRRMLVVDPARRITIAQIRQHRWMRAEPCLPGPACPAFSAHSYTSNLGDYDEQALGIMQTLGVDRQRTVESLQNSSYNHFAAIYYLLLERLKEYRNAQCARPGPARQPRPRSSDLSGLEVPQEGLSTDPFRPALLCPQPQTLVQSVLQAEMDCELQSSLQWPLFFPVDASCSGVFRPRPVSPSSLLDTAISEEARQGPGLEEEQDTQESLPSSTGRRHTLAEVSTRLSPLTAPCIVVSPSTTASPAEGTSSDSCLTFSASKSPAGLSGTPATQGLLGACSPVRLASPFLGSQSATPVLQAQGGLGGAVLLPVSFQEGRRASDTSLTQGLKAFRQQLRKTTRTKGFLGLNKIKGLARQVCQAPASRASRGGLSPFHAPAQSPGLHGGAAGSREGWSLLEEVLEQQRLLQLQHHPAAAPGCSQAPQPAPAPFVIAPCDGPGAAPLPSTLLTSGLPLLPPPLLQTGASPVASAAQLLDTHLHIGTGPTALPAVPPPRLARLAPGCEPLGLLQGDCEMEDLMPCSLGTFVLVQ

C[C@H](Nc1nc(N)nc(N)c1C#N)c1cn2ncc(Cl)c2nc1-c1cccc(F)c1
IC50 [1]: < 20 nM | IC50 (SU-DHL-6 [2]): < 20 nM

C[C@H](Nc1ncnc2[nH]cnc12)C1=Nc2cccc(Cl)c2S(=O)(=O)N1c1ccccc1
IC50 [3]: 34 nM | Ratio IC50 (Homo sapiens [4]): 790 | Ratio IC50 (Homo sapiens [5]): 170 | IC50 (SU-DHL-6 [6]): 6 nM

COc1ccc(-c2nc3c(O[C@H]4CCN(C(=O)C5CCOCC5)C4)ncnc3n2C)cn1
IC50 [7]: < 1 nM

CC[C@H](Nc1ncnc(N)c1-c1nnc(C)o1)c1nc2cccc(Cl)c2c(=O)n1-c1ccccc1
IC50 [8]: 2 nM

CC[C@H](Nc1ncnc2c1nc(-c1cnn(CC)c1C)n2C)C(=O)N1CCC(F)(F)CC1
IC50 [7]: 2.8 nM

Cc1ccc2c(c1)C(=O)N(C)c1cnc(Nc3cccc(S(=O)(=O)N4CCC(O)CC4)c3)nc1N2C
IC50 [9]: 2 nM | Ratio IC50 (Homo sapiens [10]): 3.5 | IC50 (Jurkat): 1400 nM

C[C@H](Nc1ncnc(N)c1C#N)c1cc2ncc(Cl)n2cc1-c1ccccc1
IC50 [9]: 0.2 nM | IC50 [11]: 87 nM

Cc1cccc2nc([C@H](C)Nc3ncnc4[nH]cc(-c5cccc(NS(C)(=O)=O)c5)c34)n(-c3ccccc3)c(=O)c12
IC50 [8]: 0.04 nM

Cc1nc(NC(=O)CNC(=O)c2ccccc2)sc1-c1cnc(Cl)c(NS(=O)(=O)c2ccccc2)c1
IC50 [9]: 0.6 nM | Ratio IC50 (Homo sapiens [10]): 71

CC(c1oc(=O)c2ccccc2c1C1=CCN(C)CC1)n1nc(-c2cc(O)cc(F)c2)c2c(N)ncnc21 (stereo not given)
IC50 [11]: > 1000 nM

CCn1c(-c2cnc(C)nc2)nc2c(NC3CCc4nc(Cl)n(C5CC5)c4C3)ncnc21 (stereo not given)
IC50 [7]: < 1 nM

Cc1ncc(-c2nc3c(-c4ccc5c(c4)C4(CCCN4S(C)(=O)=O)C(=O)N5)ncnc3n2C)cn1 (stereo not given)
IC50 [7]: 0.7 nM

Cn1nc(-c2cnc(N)c(-c3ccc(C(N)=O)c(F)c3)n2)nc1C1(c2ccccc2)CC1
IC50 (JeKo-1): 120 nM

CC(c1cc2ccccn2c1-c1ccc(=O)n(CCN2CCOCC2)n1)n1nc(-c2cc(O)cc(F)c2)c2c(N)ncnc21 (stereo not given)
IC50 [9]: 10 to 1000 nM | IC50 [11]: < 10 nM

Cc1nn(C)c(-c2ccccc2)c1Cn1nc(-c2cc(O)cc(F)c2)c2c(N)ncnc21
IC50 [12]: < 1000 nM

CCn1c(-c2ccc(C(F)(F)F)nc2)nc2c(NC3CCc4nnc(C(C)C)n4C3)ncnc21 (stereo not given)
IC50 [7]: < 1 nM

[O-][n+]1cccc(-c2nc3c(Cl)cccc3cc2[C@@H](Nc2ncnc3cccnc23)C(F)(F)F)c1 [SELETALISIB]
IC50 [13]: 12 nM | IC50 [14]: 280 nM | Ratio IC50 (Homo sapiens [15]): 300 | Ratio IC50 (Homo sapiens [16]): 180 | IC50 (Neutrophil): 16 nM

Cn1c(C(=O)NCC2CC2)nc2c(N3CCC(n4c(=O)[nH]c5ccccc54)CC3)ncnc21
IC50 [7]: 7.5 nM | Ratio IC50 (Homo sapiens [10]): > 13

Cc1nc(N)nc(N[C@@H](C)c2nc3ccn(C)c3cc2N2CCNCC2)c1C#N
IC50 [9]: 0.7 nM

CC(Nc1ncnc2[nH]cnc12)c1cc2ccccn2c(=O)c1-c1ccccc1 (stereo not given)
IC50 [9]: 0.1 to 10 nM

C[C@H](Nc1ncnc(N)c1C#Cc1ccc(F)cn1)c1nc2c(F)ccc(F)c2c(=O)n1-c1cc(F)cc(F)c1
IC50 [8]: < 100 nM

C[C@H](Nc1ncnc2[nH]cnc12)c1nc2ccc(F)cc2c(=O)n1-c1ccccc1 [ACALISIB]
IC50 [17]: 19 nM | IC50 [18]: 3 µM

CC(=O)N1CC(N2CCOc3c(C(C)n4nc(C)c5c(N)ncnc54)cc(Cl)c(C)c3C2)C1 (stereo not given)
IC50 [19]: < 100 nM | IC50 [20]: < 500 nM

CCC(=O)N1CC[C@H](Oc2ncnc3c2nc(-c2cnn(CC)c2C)n3C)C1
IC50 [7]: < 1 nM

CCOc1c([C@H](C)n2nc(C)c3c(N)ncnc32)cc(Cl)c(F)c1[C@@H]1CNC(=O)C1 [PARSACLISIB]
IC50 (B cell): 0.15 nM

C[C@H](Nc1ncnc2nc[nH]c12)c1cc2cccc(Cl)c2c(=O)n1-c1ccccc1 [DUVELISIB]
IC50 (Raji): 0.36 nM

Cc1ccn2nc([C@H](C)Nc3ncnc4[nH]cc(-c5ccc(O)c(CN6CCC(N(C)C)CC6)c5)c34)n(-c3ccccc3)c(=O)c12
IC50 [8]: 0.43 nM

Cc1csc2nc([C@H](C)Nc3ncnc4[nH]cnc34)c(-c3cccc(F)c3)c(=O)n12 [DEZAPELISIB]
IC50 [21]: 35 nM

CC(C)Oc1ccc(-c2nn([C@@H](C)c3oc4ccc(F)cc4c(=O)c3-c3cccc(F)c3)c3ncnc(N)c23)cc1F [UMBRALISIB]
inhibition [22]: > 60% | IC50 [23]: > 120 nM

CC[C@H](Nc1ncnc2[nH]cnc12)c1nc2cccc(F)c2c(=O)n1-c1ccccc1 [IDELALISIB]
IC50 [21]: 846 nM

Cc1c(Cl)cc(C(C)Nc2ncnc3nc[nH]c23)c(-c2cccc(F)c2)c1C(N)=O (stereo not given)
IC50 [24]: < 50 nM | IC50 (Pfeiffer): < 50 nM

C[C@H]1CN(c2nc(N)nc3c2S(=O)(=O)CC3)[C@@H]1c1nn2ccc(Cl)c2c(=O)n1-c1ccccc1
IC50 [25]: 4 nM | IC50 [26]: 3 nM | Ratio IC50 (Homo sapiens [27]): 250 | Ratio IC50 (Homo sapiens [28]): 250

Cc1csc2cc(C(C)Nc3ncnc4[nH]cnc34)c(-c3ccccc3)c(=O)n12 (stereo not given)
IC50 (SU-DHL-6 [2]): 36 nM

COc1c(C(C)Nc2ncnc(N)c2C#N)cc(Cl)c(C)c1-c1cccnc1 (stereo not given)
IC50 (Pfeiffer): < 20 nM | IC50 [19]: < 20 nM

C[C@H](NC(=O)c1c(N)nn2cccnc12)c1cc2cccc(C#Cc3cnn(C)c3)c2c(=O)n1-c1ccccc1 [EGANELISIB]
IC50 [29]: 40 µM | IC50 [30]: 4.8 µM | inhibition [31]: 88%

C[C@H](Nc1ncnc(N)c1-c1nnn[nH]1)c1nn2cccc2c(=O)n1-c1ccccc1
IC50 [8]: 0.2 nM
